In US8575376B2, “Steroide anionic compounds, method of their production, usage and pharmaceutical preparation involving them” (Ustav Organicke Chemie A Biochemie Akademie Ved Ceske …, priority 2009, dated 2013):
“Also recorded” adds a separate entry of the source.

Tests used:
[1] = tested on: rats; assay: Active allothetic place avoidance (AAPA) task, compound applied alone; assay type: in vivo, rat; conditions: Example 9 1 and 10 mg/kg s.c., dizocilpine 0.1-0.3 mg/kg i.p.
Procedure: The effect of compound from Example 9 on cognitive behaviors and locomotion was assessed using active allothetic place avoidance (AAPA) task, which requires intact hippocampi and ability of animals to navigate in space using distinct reference frames (spatial navigation and “cognitive coordination”) (Wesierska et al., 2005) and it also allows measuring changes in the accompanying locomotor activity. AAPA task training involves animals trained to move over a slowly rotating uniform circular arena, on which a prohibited sector is defined, entering which is punished by a mild footshock. A shock sector and its position can be determined solely by its relationship to distal orienting cues in the room (Stuchlik et al., 2008).
This task is highly dependent upon hippocampal formation, with unilateral reversible ablation of this structure with TTX leading to avoidance deficit (Cimadevilla et al., 2001). Animals solving this task should walk in a direction opposite to arena rotation; otherwise it would be repeatedly brought to a fixed sector by arena rotation. We conducted 4 acquisition session of AAPA task, during which the sector location was always reinforced and remained stable throughout the training. Each session lasted 20 min.
Control animals obtained saline intraperitoneally (i.p.) whilst experimental groups received subcutaneous (s.c.) injections of the compound from Example 9 at doses 1 mg/kg and 10 mg/kg (dissolved in cyclodextrin). Solution of compound from Example 9 (1 mg/2 ml or 10 mg/2 ml in cyclodextrin) was applied s.c. at a volume 2 ml/kg of body weight (b.w.). Intraperitonal application of dizocilpine (a non-competitive NMDA receptor antagonist; showing significant neuroprotective activity but exerting cognition-disturbing and psychotomimetic effects) was used as a positive control. Dizocilpine was applied at doses 0.1 mg/kg, 0.2 mg/kg and 0.3 mg/kg. It is worth noting that dizocilpine (albeit its experimental neuroprotective activity) is often used to model schizophrenia-like behaviors in […] and it has been repeatedly shown to exert a dose-dependent learning deficit and hyperlocomotion.

[2] = tested on: Long-Evans male rats; assay: Acute toxicity in rat; assay type: in vivo
Procedure: Toxicity of compound from example 9 was tested on 2-month-old Long-Evans male rats. Animals were randomly assigned to 4 groups per 7 animals each. The first group was injected i.p. with saline, the second group received i.p. cyclodextrine, the third group obtained received the compound from example 9 at a dose 1 mg/kg (dissolved in β-cyclodextrine) and the last group compound from example 9 at a dose 100 mg/kg (dissolved in β-cyclodextrine). Animals were monitored for the period of 5 days. At the end of the experiment macroscopic dissection was carried out and organs were weighted (brain, heart, liver, spleen and kidneys). Animals' weight, food and water consumption was monitored daily. At the same time the behavior and locomotor activity was observed and animals were inspected for detection of effusions, constipation, etc.

[3] = tested on: rats; assay: Elevated plus maze (anxiety); assay type: in vivo, rat
Procedure: The effect of i.p. administration of compound from example 9 in doses of 0.001, 0.01, and 10 mg/kg on behaviour in elevated plus maze was evaluated. The number of entrances into open arms and the total time spent in open arms were assessed.
The apparatus consisted of two opposite open arms (45 cm×10 cm) crossed at right angles with two opposite arms of the same size enclosed by walls 40 cm high, except for the central part where the arms crossed. The whole apparatus was elevated 50 cm above the floor.

[4] = tested on: rats; assay: Footshock-induced ultrasonic vocalization (anxiety); assay type: in vivo, rat
Procedure: Effect of compound from example 9 application at doses of 0.001 mg/kg, 0.01 mg/kg and 10 mg/kg on ultrasonic vocalization after exposure to stressful situation (foot-shock) as a measure of anxiety. Under conditions of stress and pain, rats are known to emit ultrasonic distress calls at a frequency of about 22 kHz. On the first day, rats were placed into the shock chamber individually and after 30 s of habituation, they received 6 inescapable electric foot-shocks (1 shock/1 minute, 1 mA) of 10 seconds duration. The procedure was repeated 24 hours later, but this time, the animals received only one 10-second shock. Afterwards, the rats were injected i.p. with vehicle (b-cyclodextrine) or the compound from example 9 at doses of 0.001, 0.01, and 10 mg/kg) 30 min prior to testing. During the test session, animals were placed into the shock chamber for 10 minutes and their ultrasonic vocalization was recorded. […] Each animal was recorded separately with a Mini-3 Bat Detector (Ultra Sound Advice, London, UK). Ultrasonic vocalizations at 22-kHz consisting of calls with a minimal duration of 300 ms were recorded and analyzed by UltraVox 2.0 program (Noldus, Wageningen, The Netherlands). The total number of vocalization events and their total duration were recorded.

[5] = tested on: Wistar rats; assay: Thermal nociception, plantar test (limb and tail withdrawal latency); assay type: in vivo, rat
Procedure: The effect of the compound from example 9 was assessed on acute nociception in rat. Pain was evaluated by measurement of paw/tail withdrawal latencies. Male Wistar rats (Velaz, Czech Republic) were used. Animals were kept at 22° C. (relative humidity was 40-70%) under a 12-hour light/12-hour dark cycle. All experiments were approved by the Committee for Animal Care and conducted in accordance with the ethical guidelines of the International Association for the Study of Pain. The animals were randomly divided into experimental and testing groups groups. The compound from example 9 was dissolved in β-cyclodextrine (the concentration 1.0 mg/ml and 10 mg/kg injected intraperitoneally or β-cyclodextrine injected intraperitoneally in same volume).
Thermal nociception was determined using plantar test equipment (Ugo Basile, Italy). The latency (in seconds) of forelimb, hindlimb or tail withdrawals to the noxious thermal stimulation was measured. Each animal was placed individually in a clear plastic box with a clear glass floor, and was allowed to acclimatize for 10 min; the temperature and humidity in the testing room were kept in the same range as those in the housing rooms. The latencies were measured 3 times per session, separated by a minimum interval of 5 min, and the mean value was used for further analysis. Infrared intensity was set to 40% and the maximum cutoff value was set at 22 seconds to avoid thermal injury. The testing box was cleaned after each session.

In the case of `CC(=O)[C@H]1CC[C@H]2[C@@H]3CC[C@@H]4C[C@H](OC(=O)[C@@H](N)CCC(=O)O)CC[C@]4(C)[C@H]3CC[C@]12C` [Example 9, 20-Oxo-5β-pregnan-3α-yl L-glutamyl 1-ester], the “maximum time avoided in AAPA” value [1] is reported as “did not significantly impaired cognitive performance compared to control animals”, the “number of entrances into shock sector in AAPA” value [1] is reported as “neither of doses of compound from Example 9 caused worsening in this parameter” and the “total distance traveled in AAPA (locomotor activity)” value ([1]; 20-min sessions) is reported as “failed to exhibit either decrease or increase in total distance compared to controls”. For the same molecule, the “short-term body weight gain” value ([2]; 1 mg/kg i.p. (lower dose), 5 days) was “failed to affect short-term body weight gain”, the “time to spontaneous awakening” value ([2]; 100 mg/kg i.p.) was 4 h and the “short-term body weight gain” value ([2]; 100 mg/kg i.p. (higher dose), 5 days) was “tended to decrease it slightly”. The “locomotor activity on the day of application” value ([2]; 100 mg/kg i.p., 15 minutes after injection) was “decreased locomotor activity”, the anesthetic effect ([2]; 100 mg/kg i.p., 45 minutes after injection) was “gradually changed into anesthesia of animals” and the “weight of body organs (brain, heart, liver, spleen, kidneys)” value ([2]; 1 and 100 mg/kg i.p., autopsy on day 5) was “no differences between controls and animals treated with the compound from example 9”. The “signs of acute toxicity” value ([2]; rat, i.p., doses up to 100 mg/kg, 5 days) was “does not exhibit any signs of acute toxicity; also recorded: absense of any signs of acute toxicity”, the “anxiolytic effect in elevated plus maze” value ([3]; 0.001, 0.01 and 10 mg/kg i.p.) was “pronounced dose-dependent anxiolytic effect” and the “number of entries into open arms” value ([3]; 10 mg/kg i.p., p<0.05 vs control) was “significant increase of number of entries into open arms”. For the same molecule, the “anxiolytic effect, ultrasonic vocalization” value ([4]; 0.001, 0.01 and 10 mg/kg i.p., 30 min prior to testing) was “slight dose-dependent anxiolytic effect”, the “total duration of ultrasonic vocalizations” value ([4]; 10 mg/kg i.p.) was “Significant difference” and the “limb withdrawal latency to thermal stimulus” value ([5]; 1 mg/kg i.p.) was “Such an effect was not however observed”. The “tail withdrawal reaction to thermal stimulus” value ([5]; 10 mg/kg i.p.) was “suppressed reactivity to painful stimuli”, the “limb withdrawal latency to thermal stimulus” value ([5]; 10 mg/kg i.p., p<0.001) was “significantly prolonged interval of resistance to a painful stimulus” and the “tail withdrawal reaction to thermal stimulus” value ([5]; lower dose (1 mg/kg i.p.)) was “did not yield such an effect”.
